Measurements from ChEMBL document CHEMBL1140482, “A novel class of Hsp90 inhibitors isolated by structure-based virtual screening” (Bioorg Med Chem Lett, 2007).

Tests used:
MCF7 = assay: Growth inhibition of human MCF7 cells after days by SRB assay; format: functional
[1] = Inhibition of yeast Hsp90 ATPase expressed in Escherichia coli; design: species or system Saccharomyces cerevisiae

Structure (SMILES) | GI50 (MCF7) [µM] | IC50 [1] [µM]
COc1cc(/C=C/c2nc3ccccc3c(=O)n2-c2ccccc2O)ccc1O | 9.6 | 2.3
COc1ccc(-n2c(/C=C/c3cccc(OC)c3O)nc3ccccc3c2=O)cc1 | 25.4 | 31.8
O=C(O)c1ccc(-n2c(/C=C/c3ccccc3O)nc3ccccc3c2=O)cc1 | 27.5 | 20
COC1=C2C[C@@H](C)C[C@H](OC)[C@H](O)[C@@H](C)/C=C(\C)[C@H](OC(N)=O)[C@@H](OC)/C=C\C=C(/C)C(=O)NC(=CC1=O)C2=O [GELDANAMYCIN] | 35.6 | 22
